This is an account of results in ChEMBL document CHEMBL1201862, “PubChem BioAssay data set” (2004).

What all share (experiment): growth of human tumour cells (NCI), 48 h
Assay [1] relates to NCI-H522.
The test system of assay [2] is HT-29.
The test system of assay [3] is SF-539.
Assay [4] deals with DU-145.
Assay [5] relates to NCI-H226.
For assay [6], the system named is CCRF-CEM.
For assay [7], the system named is Hs-578T.
The subject of assay [8] is CAKI-1.
In assay [9] the test system is UO-31.
The test system of assay [10] is NCI/ADR-RES.
Assay [11] has as its system OVCAR-4.
In assay [12] the test system is MOLT-4.
Assay [13] relates to SK-MEL-28.
For assay [14], the system named is ACHN.
Assay [15] relates to OVCAR-5.
Assay [16] deals with MCF7.
The subject of assay [17] is K562.
The test system of assay [18] is LOX IMVI.
Assay [19] deals with HOP-62.
In assay [20] the test system is M14.

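Briefly, cells in 96-well plates were exposed to five compound concentrations for 48 h, and endpoints were estimated by linear interpolation. GI50 is the concentration that inhibits growth by half.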 Calls of active or inactive are those of the source. No stated cut-off is given here; in the data, active = GI50 up to about 1.1 µM and inactive = higher. Some results are limits rather than exact numbers.

Regarding `Nc1nc(F)nc2c1ncn2C1OC(COP(=O)(O)O)C(O)C1O` (stereo not given), the GI50 in assay [1] is 63.1 µM (inactive); in [2] it was 310 µM (inactive); in assay [3], 146 µM (inactive); in [4], 9.57 µM (inactive); in assay [5], 98.2 µM (inactive); in assay [6], 1.59 µM (inactive). The GI50 in assay [7] was 81.5 µM (inactive); in [8] it was 8.17 µM (inactive); in [9] it was 13.2 µM (inactive); in assay [10], 4.11 µM (inactive); in [11], 212 µM (inactive); in assay [12] it was 4.38 µM (inactive). Also, the GI50 in assay [13] is 58.1 µM (inactive); in assay [14], 32.1 µM (inactive); in assay [15], 41.9 µM (inactive); in assay [16], 78.3 µM (inactive); in assay [17] it was 111 µM (inactive); in assay [18], 53.8 µM (inactive). For the same molecule, the GI50 in assay [19] is 8.53 µM (inactive); in assay [20], 6.4 µM (inactive).

As to `Clc1ccc(CCN(CCc2ccc(Cl)c(Cl)c2)CCN2CCCC2)cc1Cl`, the GI50 in [1] was 1.64 µM (inactive); in [2], 1.68 µM (inactive); in [3] it was 1.8 µM (inactive); in assay [4], 2.01 µM (inactive); in [5], 1.67 µM (inactive); in [6], 1.15 µM (inactive). Moreover, the GI50 in assay [7] is 1.9 µM (inactive); in assay [8], 1.64 µM (inactive); in assay [9] it was 1.64 µM (inactive); in assay [10] it was 1.75 µM (inactive); in assay [11] it was 1.85 µM (inactive); in assay [12], 1.79 µM (inactive). In addition, the GI50 in [13] is 1.77 µM (inactive); in assay [14], 1.74 µM (inactive); in assay [15], 1.6 µM (inactive); in assay [16], 1.51 µM (inactive); in [17] it was 2.25 µM (inactive); in assay [18], 1.6 µM (inactive). In addition, the GI50 in assay [19] and in assay [20] was 1.67 µM (inactive) each time.

As for `O=C1OC(CN2CCN(c3ccccc3)CC2)CN1C(=S)Nc1ccccc1` (stereo not given), the GI50 in [1] was > 100 µM (inactive); in assay [2], 35.1 µM (inactive); in assay [3], > 100 µM (inactive); in assay [4], > 100 µM (inactive); in assay [5], > 100 µM (inactive); in [6], > 100 µM (inactive). The GI50 in assay [7], in assay [8], in assay [9], in assay [10], in assay [11] and in assay [12] was > 100 µM (inactive) each time. The GI50 in assay [13] was > 100 µM (inactive); in assay [14], > 100 µM (inactive); in assay [15], > 100 µM (inactive); in [16], > 100 µM (inactive); in assay [17] it was 61.4 µM (inactive); in assay [18], > 100 µM (inactive). Also, the GI50 in assay [19] and in [20] was > 100 µM (inactive) in each case.

`CCCCCCN(C(=O)Oc1ccccc1)C(C#N)c1ccccc1` (stereo not given): the GI50 in [1], in [2], in assay [3], in assay [4], in assay [5] and in assay [6] was > 100 µM (inactive) each time. Also, the GI50 in [7], in [8], in assay [9], in [10], in assay [11] and in assay [12] was > 100 µM (inactive) each time. Also, the GI50 in assay [13], in [14], in assay [15], in assay [16], in assay [17] and in assay [18] was > 100 µM (inactive) in each case. In addition, the GI50 in [19] and in [20] was > 100 µM (inactive) throughout.

With `CN(CCCNC(=O)c1cn(C)c2c1ccc1cc(Cl)c(Cl)cc12)CCCNC(=O)c1cn(C)c2c1ccc1cc(Cl)c(Cl)cc12`, the GI50 in assay [1] was 14.6 µM (inactive); in assay [2], 14.8 µM (inactive); in [3] it was 15.7 µM (inactive); in [4], 15.3 µM (inactive); in assay [5] it was 22.1 µM (inactive); in assay [6] it was 8.53 µM (inactive). The GI50 in assay [7] is 8.73 µM (inactive); in [8] it was 11.6 µM (inactive); in assay [9], 16.7 µM (inactive); in assay [10], 15.2 µM (inactive); in [11], 0.789 µM (active); in assay [12], 10.4 µM (inactive). The GI50 in assay [13] was 18.5 µM (inactive); in assay [14], 13.1 µM (inactive); in assay [15], 16.4 µM (inactive); in [16] it was 5.16 µM (inactive); in [17] it was 5.41 µM (inactive); in assay [18] it was 5.74 µM (inactive). In addition, the values for the GI50 in assay [19] and in assay [20] were 14.3 µM (inactive) and 10.7 µM (inactive), respectively.

Turning to `CCn1cc(C(=O)O)c(=O)c2cc3c(cc21)S(=O)(=O)CC3`, the GI50 in [1], in [2], in [3], in [4], in assay [5] and in assay [6] was > 100 µM (inactive) in each case. The GI50 in assay [7], in assay [8], in [9], in assay [10], in [11] and in assay [12] was > 100 µM (inactive) throughout. In addition, the GI50 in assay [13], in assay [14], in [15], in [16], in assay [17] and in [18] was > 100 µM (inactive) throughout. The GI50 in [19] and in [20] was > 100 µM (inactive) in each case.

For the molecule `ON[C@@H]1C=C[C@H](n2cnc3c(NC4CC4)ncnc32)C1`, the GI50 in assay [1], in assay [2], in assay [3], in assay [4], in assay [5] and in assay [6] was > 100 µM (inactive) each time. In addition, the GI50 in assay [7], in assay [8], in assay [9], in assay [10], in assay [11] and in assay [12] was > 100 µM (inactive) throughout. Moreover, the GI50 was > 100 µM (inactive) in assay [13]; > 100 µM (inactive) in [14]; > 100 µM (inactive) in [15]; > 100 µM (inactive) in assay [16]; > 100 µM (inactive) in assay [17]; 87.5 µM (inactive) in assay [18]. Besides, the GI50 in [19] and in assay [20] was > 100 µM (inactive) in each case.

As for `Cc1ccc(NC(=S)C#N)c(C)c1`, the GI50 was 46.7 µM (inactive) in [1]; > 91.2 µM (inactive) in assay [2]; > 100 µM (inactive) in [3]; > 100 µM (inactive) in assay [4]; > 84.3 µM (inactive) in [5]; 24.2 µM (inactive) in [6]. The GI50 in assay [7] was > 100 µM (inactive); in assay [8], > 100 µM (inactive); in assay [9], 50 µM (inactive); in [10], 75.7 µM (inactive); in assay [11], > 64.1 µM (inactive); in [12], 28.8 µM (inactive). Besides, the GI50 in [13] was 65.3 µM (inactive); in assay [14] it was > 100 µM (inactive); in assay [15] it was > 100 µM (inactive); in assay [16], > 69.5 µM (inactive); in assay [17] it was 38.4 µM (inactive); in [18] it was 73.1 µM (inactive). Also, the results for the GI50 in assay [19] and in assay [20] were > 100 µM (inactive) and 97.3 µM (inactive), respectively.

As to `O=c1/c(=C/c2ccc([N+](=O)[O-])o2)sc2n1[C@@H](c1ccc3c(c1)OCO3)C=C(c1cc(F)c(Cl)cc1Cl)N=2`, the GI50 is 25.8 µM (inactive) in [1]; 17.1 µM (inactive) in assay [2]; 23.8 µM (inactive) in assay [3]; 21.6 µM (inactive) in assay [4]; 46.7 µM (inactive) in assay [5]; 3.24 µM (inactive) in assay [6]. Also, the GI50 was 61 µM (inactive) in assay [7]; 13.7 µM (inactive) in assay [8]; 16.7 µM (inactive) in [9]; 34.4 µM (inactive) in assay [10]; 15.7 µM (inactive) in assay [11]; 8.91 µM (inactive) in assay [12]. For the same molecule, the GI50 in [13] was 22.3 µM (inactive); in assay [14], 16.1 µM (inactive); in assay [15] it was 21.7 µM (inactive); in assay [16], 10 µM (inactive); in [17], 5.09 µM (inactive); in assay [18] it was 17.2 µM (inactive). Also, the GI50 in [19] was 22.5 µM (inactive); in assay [20], 13.9 µM (inactive).

Regarding `CN(C)CCNc1ccc2ncnc3c2c1C(=O)c1ccccc1-3`, the GI50 in assay [1] is 0.232 µM (active); in [2], 0.463 µM (active); in assay [3], 0.667 µM (active); in [4], 0.476 µM (active); in assay [5], 0.431 µM (active); in assay [6], 0.143 µM (active). Moreover, the GI50 in assay [7] was 0.989 µM (active); in assay [8], 0.259 µM (active); in assay [9], 0.468 µM (active); in [10], 0.357 µM (active); in assay [11], 0.627 µM (active); in assay [12] it was 0.0769 µM (active). For the same molecule, the GI50 is 2.33 µM (inactive) in assay [13]; 0.281 µM (active) in [14]; 0.488 µM (active) in [15]; 0.406 µM (active) in assay [16]; 0.221 µM (active) in assay [17]; 0.24 µM (active) in assay [18]. The GI50 in assay [19] was 0.242 µM (active); in assay [20] it was 0.314 µM (active).
